Assay results taken from US4101538A, “Nonapeptides and methods for their production” (Warner-Lambert, priority 1977, dated 1978).
Where a SMILES comes first, the peptide text is derived from it. The star is where a group is joined. Cbz = O=C(OCc1ccccc1)*; Bn = c1ccc(C*)cc1

System: LRF (luteinizing hormone releasing factor) induced luteinizing hormone (LH) release
Assay: In vitro LRF antagonist test in rat anterior pituitary cell cultures
Format: cell-based
From the text: Nonapeptides of this invention were screened for LRF antagonist activity in vitro using rat anterior pituitary cell cultures as described by Vale et. al. [Endocrinology, 91, 562 (1972)]. The inhibition of LRF (luteinizing hormone releasing factor) induced luteinizing hormone (LH) release into the culture medium is the endpoint in this in vitro bioassay.

Row | Compound | LH Value (LRF alone, molar conc. 5×10^-10) [ng/mL] | % LH Release Inhibition (compound molar conc. 1×10^-7) [%] | LH Value (compound molar conc. 1×10^-7, LH released into culture medium) [ng/mL] | % LH Release Inhibition (compound molar conc. 1×10^-8) [%] | LH Value (compound molar conc. 1×10^-8, LH released into culture medium) [ng/mL]
1 | LRF Control: luteinizing hormone releasing factor, also referred to as luteinizing hormone releasing hormone (LH-RH); stimulates secretion of luteinizing hormone (QHWSYGLRPG; Gonadoliberin-1; UniProt P01148 24-33, looked up) [reference compound] | 69.51 | – | – | – | –
2 | NC(=O)CC[C@H](NC(=O)OCc1ccccc1)C(=O)N[C@@H](Cc1c[nH]c2ccccc12)C(=O)N[C@@H](CO)C(=O)N[C@@H](Cc1ccc(O)cc1)C(=O)N[C@@H](Cc1c[nH]c2ccccc12)C(=O)N1CCC[C@H]1C(=O)N1CCC[C@H]1C(=O)N[C@@H](Cc1ccc(OCc2ccccc2)cc1)C(=O)N[C@@H](COCc1ccccc1)C(N)=O [N^α -benzyloxycarbonyl-L-glutaminyl-L-tryptophyl-L-seryl-L-tyrosyl-L-tryptophyl-L-prolyl-L-prolyl-O-benzyl-L-tyrosyl-O-benzyl-L-serinamide] (Cbz-QWSYWPPY(Bn)S(Bn)-NH2) | – | 29 | 52.33 | 37 | 47.20
